{
  "source": "paper PMC7782785",
  "about": "“Outer-membrane-acting peptides and lipid II-targeting antibiotics cooperatively kill Gram-negative pathogens” (Communications Biology, 2021)",
  "key": {"A. baumannii LMG 01041": {"tested_on": "A. baumannii LMG 01041", "assay": "microbe, parasite or virus in culture", "conditions": "Acinetobacter baumannii, LMG01041", "description": "(§1) MIC tests were performed in triplicate by liquid growth inhibition microdilution assays in sterile polypropylene microtiter plates according to the Clinical and Laboratory Standards Institute (CLSI) guideline for bacteria that grow aerobically. Briefly, the indicator strains were first streaked on the appropriate agar plate, and then single colonies were picked and incubated overnight in liquid broth. The final inoculum of bacteria was 5*10^5 CFU/mL prepared in CAMHB (cationic adjusted Mueller–Hinton broth, Sigma-Aldrich) or CAMHB plus 5% of lysed horse blood (TCS Biosciences, Buckingham, UK) in the case of S. pneumoniae. The antimicrobials were 2-fold serially diluted and 50 µL diluted bacterial suspension was added to each well to make the final volume 100 µL. The microtiter plates and the count plates were incubated at 37 °C for 16–20 h without shaking. Growth inhibition was assessed by measuring the OD600 using a microplate reader (Tecan Infinity F200). The lowest concentration of the antimicrobials that inhibits visible growth of the indicator strain is identified as the MIC value.\n(§2) The condition for the tests and the analysis of the plates were performed as described above for the MIC tests."}, "E. aerogenes LMG 02094": {"tested_on": "E. aerogenes LMG 02094", "assay": "microbe, parasite or virus in culture", "conditions": "Klebsiella aerogenes, LMG02094", "description": "as §1, §2"}, "E. coli LMG 15862": {"tested_on": "E. coli LMG 15862", "assay": "microbe, parasite or virus in culture", "conditions": "Escherichia coli, LMG15862", "description": "as §1, §2"}, "K. pneumoniae LMG 20218 [1]": {"tested_on": "K. pneumoniae LMG 20218", "assay": "microbe, parasite or virus in culture", "conditions": "Klebsiella pneumoniae, LMG20218", "description": "as §1, §2"}, "P. aeruginosa LMG 6395": {"tested_on": "P. aeruginosa LMG 6395", "assay": "microbe, parasite or virus in culture", "conditions": "Pseudomonas aeruginosa, LMG6395", "description": "as §1, §2"}, "K. pneumoniae LMG 20218 [2]": {"tested_on": "K. pneumoniae LMG 20218", "conditions": "K. pneumoniae", "description": "(§3) For the synergy test, standard checkerboard broth microdilution assays were conducted to test the synergistic effect of combined antimicrobials using the same condition as before[51],[56]. […] The initial concentration of both peptides was their individual MIC. 50 µL fresh bacterial suspension prepared as above was added to the wells already containing the antimicrobial compound mixture to achieve 100 µL final volume per well.\n(§4) The fractional inhibitory concentration (FIC) indices[57] were calculated using the formula FICI = FICa + FICb = MICac/MICa + MICbc/MICb, to determine whether the combination is additive, synergistic or antagonistic[51],[57]. The MICa and MICb is the MIC of compound A or B alone, respectively. MICac is the MIC of compound A in combination with compound B and MICbc is the MIC of compound B when it was combined with compound A. The FIC corresponds to the MIC of a compound in combination with the other compound, divided by the MIC of the compound alone. FICa is FIC of compound A while FICb is FIC of compound B. The FICI was interpreted according to EUCAST[58] as follows: synergistic, FICI ≤ 0.5; additive,0.5 < FICI ≤ 1; indifferent, 1 < FICI < 2; antagonistic, FICI ≥ 2.\nas §2"}, "K. pneumoniae ATCC700603": {"tested_on": "K. pneumoniae ATCC700603", "assay": "Synergy test, checkerboard broth microdilution", "type": "cell-based", "description": "as §3, §4"}, "A. baumannii ATCC 17978": {"tested_on": "A. baumannii ATCC 17978", "type": "cell-based", "conditions": "checkerboard", "description": "as §3, §4"}, "K. pneumoniae B1945": {"tested_on": "K. pneumoniae B1945", "type": "cell-based", "conditions": "checkerboard", "description": "as §3, §4"}, "[3]": {"tested_on": "P. aeruginosa ATCC BAA-2108", "type": "cell-based", "conditions": "checkerboard", "description": "as §3, §4"}, "P. aeruginosa B1954": {"tested_on": "P. aeruginosa B1954", "type": "cell-based", "conditions": "checkerboard", "description": "as §3, §4"}, "P. aeruginosa PA14": {"tested_on": "P. aeruginosa PA14", "type": "cell-based", "conditions": "checkerboard", "description": "as §3, §4"}, "[4]": {"tested_on": "all the Gram-negative strains tested", "assay": "organism not typed", "description": "as §1, §2\nHemolytic activity was determined with fresh human red blood cells (hRBCs)[28]. The hRBCs were centrifuged (1000×g, 5 min) and the supernatant was discarded. The pellets were washed three times with PBS and diluted in PBS to make the cell stock solution with a cell density of 2*10^8 cells/mL. […] 1% Triton X-100 and PBS were used as controls. […] The supernatant was transferred to a new 96-well plate and hemolysis was monitored by measuring the absorbance at 450 nm (OD450). Hemolysis levels were calculated as percentage. % hemolysis = 100 × (As−A0)/(At−A0), where As, A0, and At are the absorbance of the hRBCs suspension in PBS with antimicrobial agents (As), without antimicrobial agents (A0), and with 1% Triton X-100 (At). […] For the TI calculation (TI = MHC/GM), other factors as the GM (geometric mean of MIC value of all the Gram-negative strains tested) were calculated."}, "[5]": {"tested_on": "five Gram-negative strains", "assay": "Bactericidal effect testing", "type": "cell-based", "conditions": "10-fold MIC (alone or in combination), CAMHB, 37 °C, 3 h, plating on LB agar; no colonies of any of the five strains", "description": "After that, 50 µL of a 10^3-fold diluted sample were plated on LB agar[59]."}, "K. pneumoniae LMG 20218 [6]": {"tested_on": "K. pneumoniae LMG 20218", "assay": "Antimicrobial activity in blood (ex vivo bacteremia model)", "type": "cell-based", "conditions": "human blood, 10^8 CFU/mL inoculum, 37 °C, alone or (combination) with 4 µM D-11, triplicate", "description": "Briefly, blood from healthy donors was obtained from Sanquin (certified Dutch organization responsible for meeting the need in healthcare for blood and blood products, https://www.sanquin.nl/) and infected with 10^8 CFU/mL of K. pneumoniae LMG 20218. […] At 1, 2, 4, and 6 h 100 µL samples were taken from each one of the tubes and decimal serially diluted in PBS. Drops of 10 µL of each one of the dilutions were spotted on LB agar medium to follow the development of the infection. The experiment was performed in triplicate. Non-infected blood, infected blood, and blood plus peptide were used as a control."}, "HEK-293 cells": {"tested_on": "HEK-293 cells", "assay": "Cytotoxicity, cell viability (CellTiter-Glo)", "conditions": "for Cell viability (% of control): HEK-293, CellTiter-Glo"}},
  "data": [
    {"compound": "CN[C@H](CC(C)C)C(=O)N[C@H]1C(=O)N[C@@H](CC(N)=O)C(=O)N[C@H]2C(=O)N[C@H]3C(=O)N[C@H](C(=O)N[C@H](C(=O)O)c4cc(O)cc(O)c4-c4cc3ccc4O)[C@H](O)c3ccc(c(Cl)c3)Oc3cc2cc(c3O[C@@H]2O[C@H](CO)[C@@H](O)[C@H](O)[C@H]2O[C@H]2C[C@](C)(N)[C@H](O)[C@H](C)O2)Oc2ccc(cc2Cl)[C@H]1O", "note": "[Vancomycin]", "values": [
      {"measurement": "MIC", "setting": "A. baumannii LMG 01041", "value": 32, "unit": "µM"},
      {"measurement": "MIC", "setting": "E. aerogenes LMG 02094", "value": 192, "unit": "µM"},
      {"measurement": "MIC", "setting": "E. coli LMG 15862", "value": 64, "unit": "µM"},
      {"measurement": "MIC", "setting": "K. pneumoniae LMG 20218 [1]", "value": 128, "unit": "µM"},
      {"measurement": "MIC", "setting": "P. aeruginosa LMG 6395", "value": 128, "unit": "µM"},
      {"measurement": "vancomycin concentration needed in combination with D-11", "setting": "K. pneumoniae LMG 20218 [2]; checkerboard after the addition of excess LPS (1.0 mg/mL)", "value": "at least 32 µM"},
      {"measurement": "vancomycin concentration inhibiting growth in combination with 1 µM D-11", "setting": "K. pneumoniae LMG 20218 [2]; checkerboard without the addition of LPS", "value": 2, "unit": "µM"},
      {"measurement": "MICAB: MIC of vancomycin in combination with D-11 at the MICAC concentration", "setting": "K. pneumoniae ATCC700603", "value": 11.04, "unit": "µM"},
      {"measurement": "MICAB: MIC of vancomycin in combination with D-11 at the MICAC concentration", "setting": "A. baumannii ATCC 17978", "value": 5.52, "unit": "µM"},
      {"measurement": "MICAB: MIC of vancomycin in combination with D-11 at the MICAC concentration", "setting": "K. pneumoniae B1945", "value": 11.04, "unit": "µM"},
      {"measurement": "MICAB: MIC of vancomycin in combination with D-11 at the MICAC concentration", "setting": "[3]", "value": 44.15, "unit": "µM"},
      {"measurement": "MICAB: MIC of vancomycin in combination with D-11 at the MICAC concentration", "setting": "P. aeruginosa B1954", "value": 44.15, "unit": "µM"},
      {"measurement": "MICAB: MIC of vancomycin in combination with D-11 at the MICAC concentration", "setting": "P. aeruginosa PA14", "value": 32, "unit": "µM"},
      {"measurement": "increase of MIC against Gram-negative pathogens when LPS was in the medium", "setting": "[4]; LPS 1 mg/mL, vancomycin: except against A. baumannii", "value": 2, "unit": "fold"},
      {"measurement": "MIC", "setting": "[4]; read-out: GM, MIC geometric mean against all the Gram-negative strains tested", "value": 87.7, "unit": "µM"},
      {"measurement": "bactericidal effect", "setting": "[5]", "value": "bactericidal"},
      {"measurement": "bacterial count in infected whole blood after 6 h", "setting": "K. pneumoniae LMG 20218 [6]; vancomycin 2 µM", "value": "10^12 CFU/mL"},
      {"measurement": "bacterial count in infected whole blood after 6 h", "setting": "K. pneumoniae LMG 20218 [6]; vancomycin 4 µM", "value": "10^12 CFU/mL"},
      {"measurement": "bacterial count in infected whole blood after 6 h", "setting": "K. pneumoniae LMG 20218 [6]; vancomycin 8 µM", "value": "10^12 CFU/mL"},
      {"measurement": "bacterial count in infected whole blood after 6 h", "setting": "K. pneumoniae LMG 20218 [6]; vancomycin 16 µM", "value": "10^10 CFU/mL"},
      {"measurement": "Cell viability (% of control)", "setting": "HEK-293 cells; 22 µM (22/22 µM for the combination), replicate 1", "value": "96 % of control"},
      {"measurement": "Cell viability (% of control)", "setting": "HEK-293 cells; 22 µM (22/22 µM for the combination), replicate 2", "value": "107 % of control"},
      {"measurement": "Cell viability (% of control)", "setting": "HEK-293 cells; 22 µM (22/22 µM for the combination), replicate 3", "value": "113 % of control"},
      {"measurement": "Cell viability (% of control)", "setting": "HEK-293 cells; 44 µM (44/44 µM for the combination), replicate 1", "value": "110 % of control"},
      {"measurement": "Cell viability (% of control)", "setting": "HEK-293 cells; 44 µM (44/44 µM for the combination), replicate 2", "value": "102 % of control"},
      {"measurement": "Cell viability (% of control)", "setting": "HEK-293 cells; 44 µM (44/44 µM for the combination), replicate 3", "value": "114 % of control"},
      {"measurement": "Cell viability (% of control)", "setting": "HEK-293 cells; 88 µM (88/88 µM for the combination), replicate 1", "value": "103 % of control"},
      {"measurement": "Cell viability (% of control)", "setting": "HEK-293 cells; 88 µM (88/88 µM for the combination), replicate 3", "value": "114 % of control"},
      {"measurement": "effect on viability of HEK-293 cells", "setting": "HEK-293 cells; all the concentrations tested (up to 88 µM)", "value": "did not affect the viability"}
    ]}
  ]
}
